Measured values reported in ChEMBL document CHEMBL3351753, “Inhibitory effects of ginseng sapogenins on the proliferation of triple negative breast cancer MDA-MB-231 cells” (Bioorg Med Chem Lett, 2014).
Calls of active or inactive are those of the source. The rule behind the calls is not given here.

Assays:
MDA-MB-231 [1] = assay: Antiproliferative activity against human MDA-MB-231 cells after 4 hrs by MTT assay; format: functional, cell-based; settings: MDA-MB-231, 4 h
MDA-MB-231 [2] = assay: Induction of apoptosis in human MDA-MB-231 cells assessed as increase in expression of cleaved PARP at 2.5 to 5.8 uM after 24 hrs by SDS-polyactylamide gel electrophoresis; format: functional, cell-based
MDA-MB-231 [3] = assay: Induction of apoptosis in human MDA-MB-231 cells assessed as decrease in expression of full-length BID at 2.5 to 5.8 uM after 24 hrs by SDS-polyactylamide gel electrophoresis; format: functional, cell-based
LLC-PK1 = assay: Cytotoxicity against pig LLC-PK1 cells after 4 hrs by MTT assay; format: cell-based; settings: Sus scrofa, LLC-PK1, 4 h
MDA-MB-231 [4] = assay: Induction of apoptosis in human MDA-MB-231 cells assessed as increase in expression of cleaved caspase 8 at 2.5 to 5.8 uM after 24 hrs by SDS-polyactylamide gel electrophoresis; format: functional, cell-based
MDA-MB-231 [5] = assay: Induction of apoptosis in human MDA-MB-231 cells assessed as increase in cells at early apoptotic phase at 2.5 uM after 24 hrs by annexin-V-FITC/propidium iodide staining- based flow cytometric analysis (reference value: 4.76%); format: functional
MDA-MB-231 [6] = assay: Induction of apoptosis in human MDA-MB-231 cells assessed as increase in expression of cleaved caspase 3 at 2.5 to 5.8 uM after 24 hrs by SDS-polyactylamide gel electrophoresis; format: functional, cell-based

| IC50 (MDA-MB-231 [1]) [µM] | SMILES | also measured |
| --- | --- | --- |
| 6.2 | CC(=O)O[C@H]1C(=O)[C@@]2(C)[C@H]([C@H](OC(=O)c3ccccc3)[C@]3(O)C[C@H](OC(=O)[C@H](O)[C@@H](NC(=O)c4ccccc4)c4ccccc4)C(C)=C1C3(C)C)[C@]1(OC(C)=O)CO[C@@H]1C[C@@H]2O [PACLITAXEL] | – |
| 27 | CC(C)CCC[C@](C)(O)[C@H]1CC[C@]2(C)[C@@H]1[C@H](O)C[C@@H]1[C@@]3(C)CC[C@H](O)C(C)(C)[C@@H]3CC[C@]12C | – |
| 34.4 | COc1cc(/C=C/C(=O)CC(=O)/C=C/c2ccc(O)c(OC)c2)ccc1O [CURCUMIN] | – |
| 25.8 | CC(C)CCC[C@](C)(O)[C@H]1CC[C@]2(C)[C@@H]1[C@H](O)C[C@@H]1[C@@]3(C)CC[C@H](O)C(C)(C)[C@@H]3[C@@H](O)C[C@]12C | – |
| 2.9 | COc1cccc2c1C(=O)c1c(O)c3c(c(O)c1C2=O)C[C@@](O)(C(=O)CO)C[C@@H]3O[C@H]1C[C@H](N)[C@H](O)[C@H](C)O1 [DOXORUBICIN] | – |

| SMILES | IC50 (MDA-MB-231 [1]) [µM] | also measured |
| --- | --- | --- |
| CC(C)=CCC[C@](C)(O)[C@H]1CC[C@]2(C)[C@@H]1[C@H](O)C[C@@H]1[C@@]3(C)CC[C@H](O)C(C)(C)[C@@H]3[C@@H](O)C[C@]12C | 12.2 | – |
| O=C(O[C@@H]1Cc2c(O)cc(O)cc2O[C@@H]1c1cc(O)c(O)c(O)c1)c1cc(O)c(O)c(O)c1 [EPIGALOCATECHIN GALLATE] | 76.1 | – |
| CC(C)=CCC[C@](C)(O)[C@H]1CC[C@]2(C)[C@@H]1[C@H](O)C[C@@H]1[C@@]3(C)CC[C@H](O)C(C)(C)[C@@H]3CC[C@]12C | 5.9 | Activity (MDA-MB-231 [2]): Active; Activity (MDA-MB-231 [3]): Active; IC50 (LLC-PK1): 36.7 µM; Activity (MDA-MB-231 [4]): Active; Activity (MDA-MB-231 [5]): 8.18%; Activity (MDA-MB-231 [6]): Active |
